Source: paper PMC6131563, “Talaropeptides A-D: Structure and Biosynthesis of Extensively N-methylated Linear Peptides From an Australian Marine Tunicate-Derived Talaromyces sp” (Frontiers in Chemistry, 2018)
Read-outs that look alike come from different tables or passages of the source. One block for each compound: values may come before it. Where a SMILES comes first, the peptide text is derived from it. [ ]: non-standard residue; d: D form. NMeF = CN[C@@H](Cc1ccccc1)C(=O)O; NMeI = CC[C@H](C)[C@H](NC)C(=O)O; NMeV = CN[C@H](C(=O)O)C(C)C; NMeA = CN[C@@H](C)C(=O)O

How the values were obtained:
[1] = system: Bacillus subtilis ATCC 6633; assay type: cell-based; details: ATCC 6633, 24 h
NCI-H460 = assay: cells; parameters: MTT assay of cancer cell growth inhibition, absorbance at 580 nm; details: Homo sapiens, NCI-H460, 48 h
Description: (§1) Adherent cell SW620 (human colorectal carcinoma) and NCI-H460 (human lung carcinoma) cells were cultured in Roswell Park Memorial Institute (RPMI) 1640 medium. All cells were cultured as adherent mono-layers in flasks supplemented with 10% fetal bovine serum, L–glutamine (2 mM), penicillin (100 unit/mL), and streptomycin (100 μg/mL), in a humidified 37°C incubator supplied with 5% CO2. Briefly, cells were harvested with trypsin and dispensed into 96-well microtiter assay plates at 3,000 cells/well, after which they were incubated for 18 h at 37°C with 5% CO2 (to allow cells to attach as adherent mono-layers). Test compounds were dissolved in 20% DMSO in PBS (v/v) and aliquots (10 μL) applied to cells over a series of final concentrations ranging from 10 nM to 30 μM. After 48 h incubation at 37°C with 5% CO2 an aliquot (20 μL) of 3-(4,5-dimethylthiazol-2-yl)-2,5-diphenyltetrazolium bromide (MTT) in phosphate buffered saline (PBS, 5 mg/mL) was added to each well (final concentration 0.5 mg/mL), and microtiter plates were incubated for a further 4 h at 37°C with 5% CO2. After final incubation, the medium was aspirated and precipitated formazan crystals dissolved in DMSO (100 μL/well). The absorbance of each well was measured at 580 nm with a PowerWave XS Microplate Reader from Bio-Tek Instruments Inc. Where relevant, IC50 values were calculated using Prism 7.0, as the concentration of analyte required for 50% inhibition of cancer cell growth (compared to negative controls). Negative control was 1% aqueous DMSO, while positive control was doxorubicin (30 μM). All experiments were performed in duplicate.

SW620 = assay: cells; parameters: MTT assay of cancer cell growth inhibition, absorbance at 580 nm; details: Homo sapiens, SW-620, 48 h
Description: as §1

SMILES: CC[C@H](C)[C@@H](C(=O)N[C@@H](CC(C)C)C(=O)O)N(C)C(=O)[C@H](Cc1ccccc1)N(C)C(=O)[C@H](C(C)C)N(C)C(=O)[C@H](C(C)C)N(C)C(=O)[C@@H]1CCCN1C(=O)[C@H](C(C)C)N(C)C(=O)[C@@H](NC(=O)[C@@H](NC(=O)[C@H](C(C)C)N(C)C(=O)[C@H](C)NC)C(C)C)[C@@H](C)O [compound 2, talaropeptide A] (H-[NMeA][NMeV]VT[NMeV]P[NMeV][NMeV][NMeF][NMeI]L-OH)
IC50 [1]: 1.5 µM
IC50 (NCI-H460; read-out: 2): > 30 µM
IC50 (SW620; read-out: 2): > 30 µM

IC50 [1]: 3.7 µM
IC50 (NCI-H460; read-out: 3): > 30 µM
IC50 (SW620; read-out: 3): > 30 µM
SMILES: CC[C@H](C)[C@@H](C(=O)N[C@@H](CC(C)C)C(=O)O)N(C)C(=O)[C@H](Cc1ccccc1)N(C)C(=O)[C@H](C(C)C)N(C)C(=O)[C@H](C(C)C)N(C)C(=O)[C@@H]1CCCN1C(=O)[C@H](C(C)C)N(C)C(=O)[C@@H](NC(=O)[C@@H](NC(=O)[C@@H](NC(=O)[C@H](C(C)C)N(C)C(=O)[C@H](C)NC)C(C)C)[C@@H](C)O)C(C)C [compound 3, talaropeptide B] (H-[NMeA][NMeV]VTV[NMeV]P[NMeV][NMeV][NMeF][NMeI]L-OH)

SMILES: CC[C@H](C)[C@@H](C(=O)N[C@@H](CC(C)C)C(=O)O)N(C)C(=O)[C@H](Cc1ccccc1)N(C)C(=O)[C@H](C(C)C)N(C)C(=O)[C@H](C(C)C)N(C)C(=O)[C@@H]1CCCN1C(=O)[C@H](C(C)C)N(C)C(=O)[C@@H](NC(=O)[C@@H](NC(=O)[C@H](C(C)C)N(C)C(=O)[C@H](C)N(C)C(C)=O)C(C)C)[C@@H](C)O [compound 4, talaropeptide C] (Ac-[NMeA][NMeV]VT[NMeV]P[NMeV][NMeV][NMeF][NMeI]L-OH)
IC50 (NCI-H460; read-out: 4): > 30 µM
IC50 (SW620; read-out: 4): > 30 µM

IC50 (NCI-H460; read-out: 5): > 30 µM
IC50 (SW620; read-out: 5): > 30 µM
SMILES: CC[C@H](C)[C@@H](C(=O)N[C@@H](CC(C)C)C(=O)O)N(C)C(=O)[C@H](Cc1ccccc1)N(C)C(=O)[C@H](C(C)C)N(C)C(=O)[C@H](C(C)C)N(C)C(=O)[C@@H]1CCCN1C(=O)[C@H](C(C)C)N(C)C(=O)[C@@H](NC(=O)[C@@H](NC(=O)[C@@H](NC(=O)[C@H](C(C)C)N(C)C(=O)[C@H](C)N(C)C(C)=O)C(C)C)[C@@H](C)O)C(C)C [compound 5, talaropeptide D] (Ac-[NMeA][NMeV]VTV[NMeV]P[NMeV][NMeV][NMeF][NMeI]L-OH)
